Test results reported in the NIST ThermoML archive (doi:10.1016/j.jct.2015.08.039).
± gives the expanded uncertainty stated by the source.

Assay: wn = mass fraction of the nth substance listed
Settings: 298.2 K, Pendant drop shape

## CCCC[N+](CCCC)(CCCC)CCCC.[Br-] [tetrabutylammonium bromide] + O
w1 = 0.0697
  surface tension liquid-gas: 53.82 ± 1.4 mN/m
w1 = 0.1
  surface tension liquid-gas: 50.58 ± 1.3 mN/m
w1 = 0.14
  surface tension liquid-gas: 49.72 ± 1.2 mN/m
w1 = 0.3
  surface tension liquid-gas: 46.19 ± 1.1 mN/m
w1 = 0.4
  surface tension liquid-gas: 44.48 ± 1.2 mN/m
